In PubChem BioAssay (NCI) one finds TGI data, which are given here for six molecules.

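Assay format: 96-well plates, 48-hour exposure. TGI: concentration producing complete growth inhibition.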

The first experiment relates to SW-620 colon. The experiment is described as follows: DTP human tumour cell line panel, 48 h.
The TGI is the concentration giving total growth inhibition. Lower therefore signals greater sensitivity of the cells. `CCOC(=O)c1cnc2oc3ccc(O)cc3c2c1C` gave a concentration for total growth inhibition (TGI) above 100 µM.

`COC(=O)C1(CCC(C)=O)CCCCCC1=O` (configuration not stated): the TGI was above 100 µM.

With `COC(=O)c1ccc(C)cc1CC1Cc2cc(C)ccc2C1=O` (configuration not stated), the TGI is above 100 µM.

Turning to `C(=C\c1cccs1)/c1cccc(/C=C/c2cccs2)n1`, the TGI is above 100 µM.

`CC(CCN)(CCN)[N+](=O)[O-]` gave a TGI above 100 µM.

Molecule `CSc1nc(C#N)c(/N=C\N(C)C)n1C` gave a TGI above 100 µM.

A further experiment relates to 786-0 renal. The experiment in a line: DTP human tumour cell line panel, 48 h.
`CCOC(=O)c1cnc2oc3ccc(O)cc3c2c1C` came in with a TGI above 100 µM.

In turn, `COC(=O)C1(CCC(C)=O)CCCCCC1=O` (configuration not stated) yielded a concentration for total growth inhibition (TGI) above 100 µM.

`COC(=O)c1ccc(C)cc1CC1Cc2cc(C)ccc2C1=O` (configuration not stated) gave a TGI above 100 µM.

For `C(=C\c1cccs1)/c1cccc(/C=C/c2cccs2)n1`, the TGI was above 100 µM.

The molecule `CC(CCN)(CCN)[N+](=O)[O-]` yielded a TGI above 100 µM.

In turn, `CSc1nc(C#N)c(/N=C\N(C)C)n1C` yielded a TGI above 100 µM.

The test system of another experiment is TK-10 renal. The experiment is described as follows: DTP human tumour cell line panel, 48 h.
The molecule `CCOC(=O)c1cnc2oc3ccc(O)cc3c2c1C` returned a concentration for total growth inhibition (TGI) above 100 µM.

`COC(=O)C1(CCC(C)=O)CCCCCC1=O` (configuration not stated): the TGI was above 100 µM.

Consider `COC(=O)c1ccc(C)cc1CC1Cc2cc(C)ccc2C1=O` (configuration not stated), for which the TGI is above 100 µM.

In the case of `C(=C\c1cccs1)/c1cccc(/C=C/c2cccs2)n1`, the TGI is above 100 µM.

As to `CC(CCN)(CCN)[N+](=O)[O-]`, the TGI was above 100 µM.

The molecule `CSc1nc(C#N)c(/N=C\N(C)C)n1C` yielded a TGI above 100 µM.

The test system of the next experiment is NCI-H23 lung. The experiment is described as follows: DTP human tumour cell line panel, 48 h.
For `CCOC(=O)c1cnc2oc3ccc(O)cc3c2c1C`, the TGI was above 100 µM.

`COC(=O)C1(CCC(C)=O)CCCCCC1=O` (configuration not stated) gave a TGI above 100 µM.

For `COC(=O)c1ccc(C)cc1CC1Cc2cc(C)ccc2C1=O` (configuration not stated), the TGI is above 100 µM.

As to `C(=C\c1cccs1)/c1cccc(/C=C/c2cccs2)n1`, the TGI is above 100 µM.

For the molecule `CC(CCN)(CCN)[N+](=O)[O-]`, the TGI was above 100 µM.

Molecule `CSc1nc(C#N)c(/N=C\N(C)C)n1C` came in with a TGI above 100 µM.

Another experiment relates to ACHN renal. The experiment is described as follows: DTP human tumour cell line panel, 48 h.
`CCOC(=O)c1cnc2oc3ccc(O)cc3c2c1C` yielded a total growth inhibition concentration (TGI) above 100 µM.

`COC(=O)C1(CCC(C)=O)CCCCCC1=O` (configuration not stated) displayed a TGI above 100 µM.

`COC(=O)c1ccc(C)cc1CC1Cc2cc(C)ccc2C1=O` (configuration not stated): the TGI is above 100 µM.

In the case of `C(=C\c1cccs1)/c1cccc(/C=C/c2cccs2)n1`, the TGI is 38.9 µM.

`CC(CCN)(CCN)[N+](=O)[O-]` had a TGI above 100 µM.

As to `CSc1nc(C#N)c(/N=C\N(C)C)n1C`, the TGI was above 100 µM.

In the next experiment the test system is MDA-MB-435. The experiment in a line: DTP human tumour cell line panel, 48 h.
Molecule `CCOC(=O)c1cnc2oc3ccc(O)cc3c2c1C` registered a total growth inhibition concentration (TGI) above 100 µM.

`COC(=O)C1(CCC(C)=O)CCCCCC1=O` (configuration not stated): the TGI is above 100 µM.

`COC(=O)c1ccc(C)cc1CC1Cc2cc(C)ccc2C1=O` (configuration not stated) came in with a concentration for total growth inhibition (TGI) above 100 µM.

For the molecule `C(=C\c1cccs1)/c1cccc(/C=C/c2cccs2)n1`, the TGI is above 100 µM.

In turn, `CC(CCN)(CCN)[N+](=O)[O-]` gave a TGI above 100 µM.

With `CSc1nc(C#N)c(/N=C\N(C)C)n1C`, the concentration for total growth inhibition (TGI) was above 100 µM.

Another experiment has as its system SK-MEL-2 melanoma. The experiment is described as follows: DTP human tumour cell line panel, 48 h.
Molecule `CCOC(=O)c1cnc2oc3ccc(O)cc3c2c1C` yielded a concentration for total growth inhibition (TGI) above 100 µM.

The molecule `COC(=O)C1(CCC(C)=O)CCCCCC1=O` (configuration not stated) came in with a TGI above 100 µM.

`COC(=O)c1ccc(C)cc1CC1Cc2cc(C)ccc2C1=O` (configuration not stated) displayed a TGI above 100 µM.

`C(=C\c1cccs1)/c1cccc(/C=C/c2cccs2)n1` registered a TGI above 100 µM.

As for `CC(CCN)(CCN)[N+](=O)[O-]`, the TGI was above 100 µM.

In turn, `CSc1nc(C#N)c(/N=C\N(C)C)n1C` displayed a TGI above 100 µM.

In the next experiment the test system is NCI-H226 lung. The experiment is described as follows: DTP human tumour cell line panel, 48 h.
In turn, `CCOC(=O)c1cnc2oc3ccc(O)cc3c2c1C` came in with a TGI above 100 µM.

`COC(=O)C1(CCC(C)=O)CCCCCC1=O` (configuration not stated) registered a TGI above 100 µM.

`COC(=O)c1ccc(C)cc1CC1Cc2cc(C)ccc2C1=O` (configuration not stated) registered a TGI above 100 µM.

`C(=C\c1cccs1)/c1cccc(/C=C/c2cccs2)n1` yielded a TGI above 100 µM.

The molecule `CC(CCN)(CCN)[N+](=O)[O-]` showed a TGI above 100 µM.

Molecule `CSc1nc(C#N)c(/N=C\N(C)C)n1C` had a TGI above 100 µM.

A further experiment deals with T-47D breast. The experiment is described as follows: DTP human tumour cell line panel, 48 h.
In turn, `CCOC(=O)c1cnc2oc3ccc(O)cc3c2c1C` displayed a TGI above 100 µM.

`COC(=O)C1(CCC(C)=O)CCCCCC1=O` (configuration not stated) gave a TGI above 100 µM.

In turn, `COC(=O)c1ccc(C)cc1CC1Cc2cc(C)ccc2C1=O` (configuration not stated) had a TGI above 100 µM.

`C(=C\c1cccs1)/c1cccc(/C=C/c2cccs2)n1` registered a concentration for total growth inhibition (TGI) above 100 µM.

In turn, `CC(CCN)(CCN)[N+](=O)[O-]` showed a TGI above 100 µM.

As for `CSc1nc(C#N)c(/N=C\N(C)C)n1C`, the TGI was above 100 µM.

The subject of the next experiment is PC-3 prostate. The experiment is described as follows: DTP human tumour cell line panel, 48 h.
As for `CCOC(=O)c1cnc2oc3ccc(O)cc3c2c1C`, the TGI is above 100 µM.

Consider `COC(=O)C1(CCC(C)=O)CCCCCC1=O` (configuration not stated), for which the TGI was above 100 µM.

As to `COC(=O)c1ccc(C)cc1CC1Cc2cc(C)ccc2C1=O` (configuration not stated), the TGI is above 100 µM.
